According to patent US8399681B2, “Substituted aminothiazolone indazoles as estrogen related receptor-alpha modulators” (Janssen Pharmaceutica NV, priority 2009, dated 2013):

Each compound was assayed against T1, ERR1 (also known as ERR-α or ERR-1) (Homo sapiens, UniProt P11474) (assay: TR-FRET assay (disruption of co-activator peptide binding)). Settings: 6His-tagged ERR1 LBD, GST-hSRC2 co-activator polypeptide; average of 3 independent experiments.
T1 sequence (P11474 193-421 limits assumed): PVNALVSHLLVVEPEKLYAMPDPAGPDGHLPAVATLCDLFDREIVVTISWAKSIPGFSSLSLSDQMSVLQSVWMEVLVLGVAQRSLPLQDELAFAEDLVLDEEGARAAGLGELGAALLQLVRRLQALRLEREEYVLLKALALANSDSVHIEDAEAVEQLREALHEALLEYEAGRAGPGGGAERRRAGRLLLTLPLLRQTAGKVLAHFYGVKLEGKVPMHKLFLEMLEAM
Assay type: biochemical
Summary of the method: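 His6-ERR1 LBD (6 nM) with GST-SRC-2 peptide (6 nM), anti-GST Eu cryptate (30 nM) and anti-His XL665 (7.5 nM) in Tris pH 8/KCl/DTT/BSA buffer, equilibrated 4-18 h at 25 °C. Ex 340, em 615/665 nm; hyperbolic dose-response fit, mean of 3 experiments.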

Row | Structure (SMILES) | EC50 [nM]
1 | CCNC(=O)NC1CCN(C2=NC(=O)/C(=C/c3ccc4c(cnn4Cc4ccc(C(F)(F)F)cc4C(F)(F)F)c3)S2)CC1 [Example 160, 1-(1-{5-[1-(2,4-Bis-trifluoromethyl-benzyl)-1H-indazol-5-ylmethylene]-4-oxo-4,5-dihydro-thiazol-2-yl}-piperidin-4-yl)-3-ethyl-urea] | 22
2 | CN1CCN(C2=NC(=O)/C(=C/c3ccc4c(cnn4Cc4ccc(C(F)(F)F)cc4C(F)(F)F)c3)S2)CC1CCO (stereo not drawn) [Example 168, 5-[1-(2,4-Bis-trifluoromethyl-benzyl)-1H-indazol-5-ylmethylene]-2-[3-(2-hydroxy-ethyl)-4-methyl-piperazin-1-yl]-thiazol-4-one] | 9
3 | O=C1N=C(N2CCn3cccc3C2)S/C1=C\c1ccc2c(cnn2Cc2ccc(C(F)(F)F)cc2C(F)(F)F)c1 [Example 169, 5-[1-(2,4-Bis-trifluoromethyl-benzyl)-1H-indazol-5-ylmethylene]-2-(3,4-dihydro-1H-pyrrolo[1,2-a]pyrazin-2-yl)-thiazol-4-one] | 225
4 | CC1C(=O)N(C)CCN1C1=NC(=O)/C(=C/c2ccc3c(cnn3Cc3ccc(C(F)(F)F)cc3C(F)(F)F)c2)S1 (stereo not drawn) [Example 170, 4-{5-[1-(2,4-Bis-trifluoromethyl-benzyl)-1H-indazol-5-ylmethylene]-4-oxo-4,5-dihydro-thiazol-2-yl}-1,3-dimethyl-piperazin-2-one] | 30
5 | CN(C)CC1CN(C2=NC(=O)/C(=C/c3ccc4c(cnn4Cc4ccc(C(F)(F)F)cc4C(F)(F)F)c3)S2)CCO1 (stereo not drawn) [Example 171, 5-[1-(2,4-Bis-trifluoromethyl-benzyl)-1H-indazol-5-ylmethylene]-2-(2-dimethylaminomethyl-morpholin-4-yl)-thiazol-4-one] | 38
6 | O=C1N=C(N2CCO[C@@H](CO)C2)S/C1=C\c1ccc2c(cnn2Cc2ccc(C(F)(F)F)cc2C(F)(F)F)c1 [Example 172, 5-[1-(2,4-Bis-trifluoromethyl-benzyl)-1H-indazol-5-ylmethylene]-2(R)-(2-hydroxymethyl-morpholin-4-yl)-thiazol-4-one] | 14
7 | O=C1N=C(N2CCC(C(=O)NS(=O)(=O)N3CCCC3)CC2)S/C1=C\c1ccc2c(cnn2Cc2ccc(C(F)(F)F)cc2C(F)(F)F)c1 [Example 173, Pyrrolidine-1-sulfonic acid (1-{5-[1-(2,4-bis-trifluoromethyl-benzyl)-1H-indazol-5-ylmethylene]-4-oxo-4,5-dihydro-thiazol-2-yl}-piperidine-4-carbonyl)-amide] | 71
8 | O=C1N=C(N2CCC(C(=O)NS(=O)(=O)N3CCCC3)CC2)S/C1=C\c1ccc2c(cnn2Cc2ccc(Cl)cc2C(F)(F)F)c1 [Example 174, Pyrrolidine-1-sulfonic acid (1-{5-[1-(4-chloro-2-trifluoromethyl-benzyl)-1H-indazol-5-ylmethylene]-4-oxo-4,5-dihydro-thiazol-2-yl}-piperidine-4-carbonyl)-amide] | 58.1
9 | O=C1N=C(N2CCO[C@H](CO)C2)S/C1=C\c1ccc2c(c1)c(I)nn2Cc1ccc(C(F)(F)F)cc1C(F)(F)F [Example 175, 5-[1-(2,4-Bis-trifluoromethyl-benzyl)-3-iodo-1H-indazol-5-ylmethylene]-2(S)-(2-hydroxymethyl-morpholin-4-yl)-thiazol-4-one] | 5
10 | O=C1N=C(N2CCC(C(=O)O)CC2)S/C1=C\c1ccc2c(cnn2Cc2ccc(F)cc2C(F)(F)F)c1 [Example 176, 1-{5-[1-(4-Fluoro-2-trifluoromethyl-benzyl)-1H-indazol-5-ylmethylene]-4-oxo-4,5-dihydro-thiazol-2-yl}-piperidine-4-carboxylic acid] | 139
11 | O=C1N=C(N2CCO[C@H](CO)C2)S/C1=C\c1ccc2c(cnn2Cc2ccc(F)cc2C(F)(F)F)c1 [Example 177, 5-[1-(4-Fluoro-2-trifluoromethyl-benzyl)-1H-indazol-5-ylmethylene]-2-((2S)-2-hydroxymethyl-morpholin-4-yl)-thiazol-4-one] | 55
12 | O=C1N=C(N2CCN[C@@H](CO)C2)S/C1=C\c1ccc2c(cnn2Cc2ccc(F)cc2C(F)(F)F)c1 [Example 178, 5-[1-(4-Fluoro-2-trifluoromethyl-benzyl)-1H-indazol-5-ylmethylene]-2-((3R)-3-hydroxymethyl-piperazin-1-yl)-thiazol-4-one] | 52

Other lines, results leading:

Row | EC50 [nM] | Structure (SMILES)
13 | 32 | O=C1N=C(N2CCC(n3cncn3)CC2)S/C1=C\c1ccc2c(cnn2Cc2ccc(Cl)cc2C(F)(F)F)c1 [Example 158, 5-[1-(4-Chloro-2-trifluoromethyl-benzyl)-1H-indazol-5-ylmethylene]-2-(4-[1,2,4]triazol-1-yl-piperidin-1-yl)-thiazol-4-one]
14 | 36 | O=C1N=C(N2CCC(n3ccnc3)CC2)S/C1=C\c1ccc2c(cnn2Cc2ccc(Cl)cc2C(F)(F)F)c1 [Example 159, 5-[1-(4-Chloro-2-trifluoromethyl-benzyl)-1H-indazol-5-ylmethylene]-2-(4-imidazol-1-yl-piperidin-1-yl)-thiazol-4-one]
15 | 24.8 | CNC1CCCCN(C2=NC(=O)/C(=C/c3ccc4c(cnn4Cc4ccc(Cl)cc4C(F)(F)F)c3)S2)C1 (stereo not drawn) [Example 161, 5-[1-(4-Chloro-2-trifluoromethyl-benzyl)-1H-indazol-5-ylmethylene]-2-(3-methylamino-azepan-1-yl)-thiazol-4-one]
16 | 27 | O=C1N=C(N2CCCC2)S/C1=C\c1ccc2c(cnn2Cc2ccc(Cl)cc2C(F)(F)F)c1 [Example 162, 5-[1-(4-Chloro-2-trifluoromethyl-benzyl)-1H-indazol-5-ylmethylene]-2-pyrrolidin-1-yl-thiazol-4-one]
17 | 26 | CN(C)CC1(O)CCN(C2=NC(=O)/C(=C/c3ccc4c(cnn4Cc4ccc(Cl)cc4C(F)(F)F)c3)S2)CC1 [Example 163, 5-[1-(4-Chloro-2-trifluoromethyl-benzyl)-1H-indazol-5-ylmethylene]-2-(4-dimethylaminomethyl-4-hydroxy-piperidin-1-yl)-thiazol-4-one]
18 | 12 | O=C1N=C(N2CCC(O)(Cn3ccnc3)CC2)S/C1=C\c1ccc2c(cnn2Cc2ccc(Cl)cc2C(F)(F)F)c1 [Example 164, 5-[1-(4-Chloro-2-trifluoromethyl-benzyl)-1H-indazol-5-ylmethylene]-2-(4-hydroxy-4-imidazol-1-ylmethyl-piperidin-1-yl)-thiazol-4-one]
19 | 18 | CCC1(O)CCCN(C2=NC(=O)/C(=C/c3ccc4c(cnn4Cc4ccc(Cl)cc4C(F)(F)F)c3)S2)C1 (stereo not drawn) [Example 165, 5-[1-(4-Chloro-2-trifluoromethyl-benzyl)-1H-indazol-5-ylmethylene]-2-(3-ethyl-3-hydroxy-piperidin-1-yl)-thiazol-4-one]
20 | 19 | O=C1N=C(N2CCC(N3CCCC(O)C3)CC2)S/C1=C\c1ccc2c(cnn2Cc2ccc(Cl)cc2C(F)(F)F)c1 (stereo not drawn) [Example 166, 5-[1-(4-Chloro-2-trifluoromethyl-benzyl)-1H-indazol-5-ylmethylene]-2-(3-hydroxy-[1,4′]bipiperidinyl-1′-yl)-thiazol-4-one]
21 | 16 | O=C1N=C(N2CCC3(CC2)NCNC3=O)S/C1=C\c1ccc2c(cnn2Cc2ccc(Cl)cc2C(F)(F)F)c1 [Example 167, 8-{5-[1-(4-Chloro-2-trifluoromethyl-benzyl)-1H-indazol-5-ylmethylene]-4-oxo-4,5-dihydro-thiazol-2-yl}-1,3,8-triaza-spiro[4.5]decan-4-one]
